# Experimental data taken from patent US6528275B1, “Substrates and inhibitors of proteolytic enzymes” (Peptide Therapeutics Limited, priority 1996, dated 2003).
# Non-standard residues stand in square brackets, D forms with d. Residues, ends and D or L forms follow the SMILES beside them. *: point of attachment. Tyr(3-NO2) = N[C@@H](Cc1ccc(O)c([N+](=O)[O-])c1)C(=O)O; Benzoyl(2-COOH) = O=C(O)c1ccccc1C(=O)*; 3Pal = N[C@@H](Cc1cccnc1)C(=O)O; Tic = O=C(O)[C@@H]1Cc2ccccc2CN1; Cha = N[C@@H](CC1CCCCC1)C(=O)O; hLeu = CC(C)CC[C@H](N)C(=O)O; Nle = CCCC[C@H](N)C(=O)O; 2Abz = Nc1ccccc1C(=O)O; Piv = CC(C)(C)C(=O)*; Bz = O=C(c1ccccc1)*; Ahx = NCCCCCC(=O)O
# Target: T1, Der pI (Dermatophagoides pteronyssinus, UniProt P08176)
# T1 construct: tissue SmithKline-Beecham, U.K (crude mite extract); host or cells: crude house dust mite extract
# T1 sequence (P08176 99-320): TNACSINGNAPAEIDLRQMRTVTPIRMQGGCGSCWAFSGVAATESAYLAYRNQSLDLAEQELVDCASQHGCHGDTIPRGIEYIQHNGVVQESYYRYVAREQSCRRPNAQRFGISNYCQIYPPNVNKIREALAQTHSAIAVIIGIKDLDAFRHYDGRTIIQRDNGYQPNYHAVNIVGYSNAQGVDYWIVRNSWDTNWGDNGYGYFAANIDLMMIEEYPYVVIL
# Assay: Der pI substrate assay with FRET peptides (fluorescence, Km, kcat/Km)
# Assay type: biochemical, house dust mite
# Conditions: purified Der pI; peptides SEQ ID Nos. 1-76; read-out: Measured Km
# Experimental: (§1) Using the general techniques described above, the following compounds were prepared and assayed as potential substrates against Der pI purified as described above.
# (§2) Each mixture of 20 compounds in the libraries of the apparatus described herein was screened at a concentration of 1.0 μM per compound in an assay against the cysteinyl protease Der pI.
# (§3) Plate assays were carried out in 96 well plate format, using 0.1 ug of Der pI per 100 μL assay volume in each well and using 20 μM of the substrate. All assays were performed in Assay Buffer (AB; 50 mM potassium phosphate, pH 8.25 containing 1 mM ethylenediaminetetraacetic acid (EDTA) and 1 mM dithiothreitol (DTT). The Der pI enzyme is pre-activated by addition of DTT and this in incubated at room temperature for 5 min. prior to initiation of the assay. As an example for the screening methodology, each well contains a 5 μL of a 20 μM solution of the test compound in DMSO, 10 μL of a 200 μM aqueous solution of the substrate, 2, and 85 μL of Der pI in AB is added to initiate the reaction. Enzyme activity is monitored by fluorescence using 320 nm for excitation and 420 nm for the emission wavelengths using a Labsystems Fluroskan Ascent machine. Kinetic measurements were carried out using a Hitachi F-4500 Fluorescence Spectrophotometer.
row,Molecule,Km
1,CC(C)CC[C@H](NC(=O)[C@H](C)NC(=O)[C@H](Cc1cccnc1)NC(=O)c1ccccc1N)C(=O)N[C@@H](CO)C(=O)N[C@@H](Cc1ccc(O)c([N+](=O)[O-])c1)C(=O)N[C@@H](CC(=O)O)C(N)=O [Abz-3pyr-Ala-hLeu-Ser-Tyr(NO2)-Asp-NH2] (H-[2Abz][3Pal]A[hLeu]S[Tyr(3-NO2)]D-NH2),> 10 µM
2,CC(C)CC[C@H](NC(=O)[C@H](C)NC(=O)[C@H](CCCCN)NC(=O)c1ccccc1N)C(=O)N[C@@H](CO)C(=O)N[C@@H](Cc1ccc(O)c([N+](=O)[O-])c1)C(=O)N[C@@H](CC(=O)O)C(N)=O [Abz-Lys-Ala-hLeu-Ser-Tyr(NO2)-Asp-NH2] (H-[2Abz]KA[hLeu]S[Tyr(3-NO2)]D-NH2),> 15 µM
3,CC(C)[C@H](NC(=O)c1ccccc1N)C(=O)N[C@@H](C)C(=O)N[C@@H](Cc1c[nH]cn1)C(=O)N[C@@H](CO)C(=O)N[C@@H](Cc1ccc(O)c([N+](=O)[O-])c1)C(=O)N[C@@H](CC(=O)O)C(N)=O [Abz-Val-Ala-His-Ser-Tyr(NO2)-Asp-NH2] (H-[2Abz]VAHS[Tyr(3-NO2)]D-NH2),> 20 µM
4,Abz-Bip-Ala-hLeu-Abu-Tyr(NO2)-Asp-NH2,1.7 µM

# Target: T1, Der pI
# Assay: as above
# Assay type: biochemical, house dust mite
# Parameters: key: NS-Not Substrate: Not hydrolysed by Der pI; NM-Substrate but not measured: Substrate for Der pI but not measured
# Conditions: purified Der pI; peptides SEQ ID Nos. 77-85
# Experimental: as §1, §2, §3
row,Molecule,substrate or not substrate for Der pI (symbols in Measured Km)
1,Abz-Cmpi-Nle-Ser-Tyr(NO2)-Asp-NH2,NS
2,Abz-Deg-Ala-Nle-Ser-Tyr(NO2)-Asp-NH2,NS
3,Abz-Val-(NMe)Ala-Nle-Ser-Tyr(NO2)-Asp-NH2,NS
4,Abz-Val-Aib-Nle-Ser-Tyr(NO2)-Asp-NH2,NS
5,Abz-Val-Ala-(NMe)Nle-Ser-Tyr(NO2)-Asp-NH2,NS
6,Abz-Val-Ala-Aib-Ser-Tyr(NO2)-Asp-NH2,NS
7,Abz-p.Aba-Nle-Ser-Tyr(NO2)-Asp-NH2,NS
8,Bz-Val-Ala-Statine-Ser-eAha-NH2,NS
9,nBu-D.Ser-D.Nle-D.Ala-D.Val-p.Aba-NH2,NS

# Target: T1, Der pI
# Assay: as above
# Assay type: biochemical, house dust mite
# Parameters: key: NS indicates that the peptide was not hydrolysed by Der pI.; NM indicated that the peptide was a substrate for Der pI, but the Km was not measured.; NM^a indicates that the peptide was a substrate for Der pI, and its cleavage was followed by HPLC-MS showing hydrolysis to occur between-Nle-Ser-
# Conditions: purified Der pI; peptides SEQ ID Nos. 1-76
# Experimental: as §1, §2, §3
row,Molecule,substrate or not substrate for Der pI (symbols in Measured Km)
1,CCCC[C@H](NC(=O)[C@H](C)NC(=O)[C@@H](NC(=O)c1ccccc1N)C(C)C)C(=O)N[C@@H](CO)C(=O)N[C@@H](Cc1ccc(O)cc1)C(=O)N[C@@H](CC(=O)O)C(N)=O [Abz-Val-Ala-Nle-Ser-Tyr-Asp-NH2] (H-[2Abz]VA[Nle]SYD-NH2),NM
2,CCCC[C@H](NC(=O)[C@H](C)NC(=O)[C@@H](NC(=O)c1ccccc1N)C(C)C)C(=O)N[C@@H](CO)C(=O)NCCCCCC(=O)N[C@@H](CC(=O)O)C(N)=O [Abz-Val-Ala-Nle-Ser-eAHA-Asp-NH2] (H-[2Abz]VA[Nle]S[Ahx]D-NH2),NM
3,CC(C)CC[C@H](NC(=O)[C@H](CC1CCCCC1)NC(=O)[C@@H](NC(=O)c1ccccc1N)C(C)C)C(=O)N[C@@H](CO)C(=O)N[C@@H](Cc1ccc(O)c([N+](=O)[O-])c1)C(=O)N[C@@H](CC(=O)O)C(N)=O [Abz-Val-Cha-hLeu-Ser-Tyr(NO2)-Asp-NH2] (H-[2Abz]V[Cha][hLeu]S[Tyr(3-NO2)]D-NH2),NS
4,CC(C)CC[C@H](NC(=O)[C@@H](C)NC(=O)[C@@H](NC(=O)c1ccccc1N)C(C)C)C(=O)N[C@@H](CO)C(=O)N[C@@H](Cc1ccc(O)c([N+](=O)[O-])c1)C(=O)N[C@@H](CC(=O)O)C(N)=O [Abz-Val-DAla-hLeu-Ser-Tyr(NO2)-Asp-NH2] (H-[2Abz]V[dA][hLeu]S[Tyr(3-NO2)]D-NH2),NS
5,CC(C)CC[C@H](NC(=O)[C@@H](CCCCN)NC(=O)[C@@H](NC(=O)c1ccccc1N)C(C)C)C(=O)N[C@@H](CO)C(=O)N[C@@H](Cc1ccc(O)c([N+](=O)[O-])c1)C(=O)N[C@@H](CC(=O)O)C(N)=O [Abz-Val-DLys-hLeu-Ser-Tyr(NO2)-Asp-NH2] (H-[2Abz]V[dK][hLeu]S[Tyr(3-NO2)]D-NH2),NS
6,CC(C)CC[C@H](NC(=O)[C@@H]1Cc2ccccc2CN1C(=O)[C@@H](NC(=O)c1ccccc1N)C(C)C)C(=O)N[C@@H](CO)C(=O)N[C@@H](Cc1ccc(O)c([N+](=O)[O-])c1)C(=O)N[C@@H](CC(=O)O)C(N)=O [Abz-Val-Tic-hLeu-Ser-Tyr(NO2)-Asp-NH2] (H-[2Abz]V[Tic][hLeu]S[Tyr(3-NO2)]D-NH2),NS
7,CCCC[C@H](NC(=O)[C@H](C)NC(=O)[C@@H](NC(C)=O)C(C)C)C(=O)N[C@@H](CO)C(=O)N[C@@H](Cc1ccc(O)c([N+](=O)[O-])c1)C(=O)N[C@@H](CC(=O)O)C(N)=O [Ac-Val-Ala-Nle-Ser-Tyr(NO2)-Asp-NH2] (Ac-VA[Nle]S[Tyr(3-NO2)]D-NH2),NS
8,CCCC[C@H](NC(=O)[C@H](C)NC(=O)[C@@H](NC(C)=O)C(C)C)C(=O)N[C@@H](CO)C(=O)N[C@@H](Cc1ccc(O)c([N+](=O)[O-])c1)C(N)=O [Ac-Val-Ala-Nle-Ser-Tyr(NO2)-NH2] (Ac-VA[Nle]S[Tyr(3-NO2)]-NH2),NS
9,CCCC[C@H](NC(=O)[C@H](C)NC(=O)[C@@H](NC(=O)c1ccccc1C(=O)O)C(C)C)C(=O)N[C@@H](CO)C(=O)N[C@@H](Cc1ccc(O)c([N+](=O)[O-])c1)C(N)=O [Bz(2-carboxy)-Val-Ala-Nle-Ser-Tyr(NO2)-NH2] ({Benzoyl(2-COOH)}-VA[Nle]S[Tyr(3-NO2)]-NH2),NM^a
10,CCCC[C@H](NC(=O)[C@H](C)NC(=O)[C@@H](NC(=O)c1ccccc1)C(C)C)C(=O)N[C@@H](CO)C(=O)N[C@@H](Cc1ccc(O)c([N+](=O)[O-])c1)C(N)=O [Bz-Val-Ala-Nle-Ser-Tyr(NO2)-NH2] (Bz-VA[Nle]S[Tyr(3-NO2)]-NH2),NM^a
11,CCCC[C@H](NC(=O)[C@H](C)N)C(=O)N[C@@H](CO)C(=O)N[C@@H](Cc1ccc(O)c([N+](=O)[O-])c1)C(=O)N[C@@H](CC(=O)O)C(N)=O [H-Ala-Nle-Ser-Tyr(NO2)-Asp-NH2] (H-A[Nle]S[Tyr(3-NO2)]D-NH2),NS
12,CCCC[C@H](NC(=O)[C@H](C)NC(=O)[C@@H](N)C(C)C)C(=O)N[C@@H](CO)C(=O)N[C@@H](Cc1ccc(O)c([N+](=O)[O-])c1)C(N)=O [H-Val-Ala-Nle-Ser-Tyr(NO2)-NH2] (H-VA[Nle]S[Tyr(3-NO2)]-NH2),NS
13,CCCC[C@H](NC(=O)[C@H](C)NC(=O)[C@@H](N)C(C)C)C(=O)N[C@@H](CO)C(=O)N[C@@H](Cc1ccc(O)c([N+](=O)[O-])c1)C(=O)N[C@@H](CC(=O)O)C(N)=O [H-Val-Ala-Nle-Ser-TyrNO2-Asp-NH2] (H-VA[Nle]S[Tyr(3-NO2)]D-NH2),NS
14,CCCC[C@H](NC(=O)[C@H](C)NC(=O)[C@@H](NC(=O)C(C)(C)C)C(C)C)C(=O)N[C@@H](CO)C(=O)N[C@@H](Cc1ccc(O)c([N+](=O)[O-])c1)C(N)=O [Piv-Val-Ala-Nle-Ser-Tyr(NO2)-NH2] (Piv-VA[Nle]S[Tyr(3-NO2)]-NH2),NM^a
15,Abz-2.Naph-Val-Ala-Nle-Ser-Tyr(NO2)-Asp-NH2,NM
16,Abz-3.Pyr-Val-Ala-Nle-Ser-Tyr(NO2)-Asp-NH2,NM
17,Chex-Val-Ala-Nle-Ser-Tyr(NO2)-NH2,NM^a
18,n-Bu-Val-Ala-Nle-Ser-Tyr(NO2)-NH2,NM^a
